The values that follow come from patent US20220409510A1, “Polypeptides And Methods For Improving Skin Conditions” (Interk Peptide Therapeutics Limited, priority 2018, published 2022).

Non-standard residues stand in square brackets, D forms with d. No end group written: not given here.

Data set [1] concerns wound (skin punch, ID 12 mm). In words: Murine wound model, percentage closure of the wound. The note with it: topical 10 ug per mouse daily for 10 consecutive days. Format: in vivo, ICR mice. The text has this: FIGS. 1 and 2 illustrate the effect of polypeptides IK34720 (SEQ ID NO: 3—RSKAKNPLYRRRRRRRRR) (FIG. 1) and the dextro-reverso sequence IK236770 (SEQ ID NO: 4—rrrrrrrrrylpnkaksr) (FIG. 2), on wound healing over 10 days in a murine wound model in accordance with the following protocol.
Three groups of 8 male ICR mice with a mean weight of 22 g (±2 g) were used in the present study. The animals were housed in individual cages during the study. Under isoflurane gas anaesthesia, the shoulder and back region of each animal was shaved and a sharp punch (ID 12 mm) was used to induce a wound by removing the skin, including panniculus carnosus and adherent tissues on Day 1.
Following induction of the wound the polypeptides IK34720 and IK236770 were topically administered to the site of the wound at a dosage of 10 μg per animal. […] An additional group which comprised the administration of Phosphate buffered Saline (PBS) at pH 7.4 was used as a negative control.
The wound healing was analysed on Days 5, 7, 9 and 11 by tracing the periphery of the wound onto clear plastic sheets with the wound area calculated by an Image analyzer ProPlus (Media Cybernetics, Version 4.5.0.29. The percentage closure of the wound (%) was calculated. Percentage closure of the wound was determined on 5, 7, 9 and 11. ANOVA and Dunnett's test were applied to test significant significance between the treated groups (peptide and positive control groups) and the negative control group at each time point of measurement. Differences were considered statistically significant at P<0.05, and are indicated by *.

The test system of data set [2] is CPDs in human skin explants. In words: CPD formation in human skin explants after UV-irradiation. Format: cell-based. The note with it: 3 hrs post irradiation/treatment; Calcitriol 1 nM; IK34720 50, 250 or 500 uM; FIG. 12. The protocol:
Human skin removed at elective surgery was cleaned, dissected and cut into pieces of approx. 5 mm×5 mm. Each piece was placed in a well of a 96 well plate, with individual plates prepared to assess the effects 3 hrs post treatment. All samples were performed in triplicate for each treatment. Skin was subjected to UV-radiation from solar-simulated UV source for 1.5 h (UVR), or non-irradiation (SHAM). Given that human skin is thicker than mouse skin, human skin explants were exposed to a radiation dose three times higher than that used for mouse skin, i.e., 20 J/cm2 versus 7 J/cm2, respectively, and the output spectrum of the laboratory solar simulator has previously been reported (Rybchyn MS et al, J Invest Dermatol. 2018 May; 138(5):1146-1156) and treated immediately after with a vehicle control, Calcitriol (1 nM) or the polypeptide IK34720 (SEQ ID NO: 3) at concentrations of 50 μM, 250 μM or 500 uM.
Samples harvested at 3 hrs were fixed, section, stained and quantified as described in Example 5.

The test system of a further data set is MMP1. Description: MMP1 expression in human skin explants after UV-irradiation (immunohistochemistry). In kind it is cell-based. The note with it: 3 hrs post irradiation/treatment; Calcitriol 1 nM; IK34720 50, 250 or 500 uM; FIG. 17. The protocol: The effect of the polypeptide IK34720 (SEQ ID NO: 3) on MMP-1 activity in human skin was evaluated using the following protocol.
FIGS. 17 and 18 illustrate the effect of the polypeptide IK34720 (SEQ ID NO: 3) on MMP1 expression, in accordance with the following protocol.
Human skin (2× human explant tissues) removed at elective surgery was cleaned, dissected and cut into pieces of approx. 5mm×5mm. Each piece was placed in a well of a 96 well plate, with individual plates prepared to assess the effects 3 hrs post treatment. Skin was subjected to UV-radiation from solar-simulated UV source for 1.5 h (UVR), or non-irradiation (SHAM), and treated immediately after with a vehicle control, Calcitriol (1 nM) or the polypeptide IK34720 (SEQ ID NO: 3) at concentrations of 50 μM, 250 μM or 500 uM. In FIG. 17, IK50, IK250 and IK500 as μM concentrations refers to 15 μg, 75 μg and 150 μg of IK34720 per 120 μL culture medium/explant, respectively.
Samples harvested at 3 hrs were fixed, sectioned, immunohistochemically stained for MMP1 and quantified for MMP1 expression, by expressing epidermal area stained for MMP1 as a function of total epidermal area examined.

The test system of a further data set is dermal fibroblasts. Description: TBARS lipid peroxidation assay in UV irradiated dermal fibroblasts. In kind it is cell-based. The note with it: highest concentration (5 μM) of peptide; FIG. 19. The method, then:
The ability of the polypeptide RSKAKNPLYRRRRRRRRR to alter UV-induced oxidative damage of cell-derived lipids was examined using the TBARS thiobarbituric acid-reactive substances (TBARS) lipid peroxidation assay.
After irradiation or sham-irradiation of dermal fibroblasts, supernatants (900 μL) were collected. In brief, 90 μL of butylated hydroxytoluene (2% w/w in ethanol) was added and samples kept frozen (−20° C.) until the TBARS assay. Petri dishes were washed twice with 1 mL of HBSS, cells scraped in 600 μL of water and 60 μL of 0.5% aqueous Triton X100 added to this solution, for protein determination carried out by the Lowry method (Lowry OH et al, J. Biol. Chem., 1951, 193:265-275). TBARS were fluorometrically assayed as described (Morlière P et al, Biochim. Biophys. Acta, 1991, 1084:261-268). Briefly, thawing samples were heated in the presence of thiobarbituric acid in acidic conditions, and TBARS extracted with 1-butanol and fluorometrically quantified (λexc=515 nm and λem=550 nm). Tetraethoxypropane, which quantitatively yields the malondialdehyde-thiobarbituric acid adduct in the assay conditions, was used for calibration. TBARS values, expressed in malondialdehyde (MDA) equivalents, were normalized to the cell protein for each Petri dish. Each TBARS determination was performed in triplicate (e.g., with three Petri dishes per data point).

The target of data set [3] is T1, polypeptide IK34720 (RSKAKNPLYRRRRRRRRR).
T1 chain: RSKAKNPLYRRRRRRRRR

Take `CCNC(=O)[C@H]1O[C@@H](n2cnc3c(N)nc(NCCc4ccc(CCC(=O)O)cc4)nc32)[C@H](O)[C@@H]1O` [CGS-21680, reference compound]: the wound closure percentage result in data set [1] (Day 5 to Day 11, vs negative control (PBS)) is recorded as “increase wound healing compared to the negative control”.
On to “rrrrrrrrrylpnkaksr ([dR][dR][dR][dR][dR][dR][dR][dR][dR][dY][dL][dP][dN][dK][dA][dK][dS][dR]; also: retro-inverso) [IK236770]”, for which, in data set [1] (day 5, vs negative control), the “wound healing (wound closure % percentage)” value was “statistically significant increase in wound healing”.
`C=C1/C(=C\C=C2/CCC[C@]3(C)[C@@H]([C@H](C)CCCC(C)(C)O)CC[C@@H]23)C[C@@H](O)C[C@@H]1O` [Calcitriol, 1,25-dihydroxyvitamin D3, reference compound]: the “cells having CPDs (stained cells)” value in data set [2] is recorded as “fewer stained cells”. The “cells staining for MMP-1” value in the data set on MMP1 is on record as “fewer stained cells”. For the same molecule, in the data set on dermal fibroblasts, the “significant difference in TRS (TBA reactive substances) between Sham and UV irradiation” value is “not seen”.

B1: Human rheumatoid synovial fibroblast MMP-1 proenzyme, activated with APMA (protein)
chain: FVLTEGNPRWEQTHLTYRIENYTPDLPRADVDHAIEKAFQLWSNVTPLTFTKVSEGQADIMISFVRGDHRDNSPFDGPGGNLAHAFQPGPGIGGDAHFDEDERWTNNFREYNLHRVAAHELGHSLGLSHSTDIGALMYPSYTFSGDVQLAQDDIDGIQAIYGRSQNPVQPIGPQTPKACDSKLTFDAITTIRGEVMFFKDRFYMRTNPFYPEVELNFISVFWPQLPNGLEAAYEFADRDEVRFFKGNKYWAVQGQNVLHGYPKDIYSSFGFPRTVKHIDAALSEENTGKTYFFVANKYWRYDEYKRSMDPGYPKMIAHDFPGIGHKVDAVFMKDGFFYFFHGTRQYKFDPKTKRILTLQKANSWFNCRKN
B1: in data set [3], the “MMP-1 activity in vitro: amount of Mca-Pro-Leu-Gly formed from the fluorogenic substrate Mca-Pro-Leu-Gly-Leu-Dap-Ala-Arg, read spectrofluorimetrically at 340 nm/400 nm” value is “inhibits MMP-1 activation in a dose dependent manner”.
